Reference: patent publication US8017606B2, “Quinoline derivatives as antibacterial agents” (Janssen Pharmaceutica NV, priority 2005, dated 2011)
Values after ≈ are worked out from the molar mass of the structure shown.

Key:
Experiment in all cases: Microtitre plate assay, IC90 determination
Type in all cases: cell-based
[1] = test system: Enterococcus faecalis (ATCC29212); details: 90% inhibitory concentration for bacterial growth, 37° C., resazurin fluorescence, read-out: IC90 (μg/ml) EFA 29212
Method: (§1) The bacteria used in this study were grown overnight in flasks containing 100 ml Mueller-Hinton Broth (Becton Dickinson—cat. no. 275730) in sterile de-ionized water, with shaking, at 37° C. Stocks (0.5 ml/tube) were stored at −70° C. until use. Bacteria titrations were performed in microtiter plates and colony forming units (CFUs) were determined. In general, an inoculum level of approximately 100 CFUs was used for susceptibility testing.
(§2) Anti Bacterial Susceptibility Testing: IC90 Determination
(§3) Flat-bottom, sterile 96-well plastic microtiter plates were filled with 180 μl of sterile deionized water, supplemented with 0.25% BSA. Subsequently, stock solutions (7.8×final test concentration) of compounds were added in 45 μl volumes in column 2 Serial five-fold dilutions (45 μl in 180 μl) were made directly in the microtiter plates from column 2 to reach column 11. Untreated control samples with (column 1) and without (column 12) inoculum were included in each microtiter plate. Depending on the bacteria type, approximately 10 to 60 CFU per well of bacteria inoculum (100 TCID50), in a volume of 100 μl in 2.8× Mueller-Hinton broth medium, was added to the rows A to H, except column 12. The same volume of broth medium without inoculum was added to column 12 in row A to H. The cultures were incubated at 37° C. for 24 hours under a normal atmosphere (incubator with open air valve and continuous ventilation). At the end of incubation, one day after inoculation, the bacterial growth was quantitated fluorometrically. Therefore resazurin (0.6 mg/ml) was added in a volume of 20 μl to all wells […], and the plates were re-incubated overnight. A change in colour from blue to pink indicated the growth of bacteria.
(§4) The fluorescence was read in a computer-controlled fluorometer (Cytofluor Biosearch) at an excitation wavelength of 530 nm and an emission wavelength of 590 nm. The % growth inhibition achieved by the compounds was calculated according to standard methods. The IC90 (expressed in μg/ml) was defined as the 90% inhibitory concentration for bacterial growth.

[2] = test system: methicilline resistant Staphylococcus aureus (MRSA) (a clinical isolate from the University of Antwerp); details: 90% inhibitory concentration for bacterial growth, 37° C., resazurin fluorescence, read-out: IC90 (μg/ml) STA RMETHIC
Method: as §1, §2, §3, §4

[3] = test system: Staphylococcus aureus (ATCC29213); details: 90% inhibitory concentration for bacterial growth, 37° C., resazurin fluorescence, read-out: IC90 (μg/ml) STA 29213
Method: as §1, §2, §3, §4

[4] = test system: Streptococcus pneumoniae (ATCC6305); details: 90% inhibitory concentration for bacterial growth, 37° C., resazurin fluorescence, read-out: IC90 (μg/ml) SPN 6305
Method: as §1, §2, §3, §4

[5] = test system: Staphylococcus aureus (ATCC25923); details: 90% inhibitory concentration for bacterial growth, 37° C., resazurin fluorescence, read-out: IC90 (μg/ml) STA 25923
Method: as §1, §2, §3, §4

[6] = test system: Listeria monocytogenes (ATCC49594); details: 90% inhibitory concentration for bacterial growth, 37° C., resazurin fluorescence, read-out: IC90 (μg/ml) LMO 49594
Method: as §1, §2, §3, §4

[7] = test system: Bacillus subtilis (ATCC43639); details: 90% inhibitory concentration for bacterial growth, 37° C., resazurin fluorescence, read-out: IC90 (μg/ml) BSU 43639
Method: as §1, §2, §3, §4

[8] = test system: Pseudomonas aeruginosa (ATCC27853); details: 90% inhibitory concentration for bacterial growth, 37° C., resazurin fluorescence, read-out: IC90 (μg/ml) PAE 27853
Method: as §1, §2, §3, §4

[9] = test system: Streptococcus pyogens (ATCC8668); details: 90% inhibitory concentration for bacterial growth, 37° C., resazurin fluorescence, read-out: IC90 (μg/ml) SPY 8668
Method: as §1, §2, §3, §4

[10] = test system: Streptococcus mutans (ATCC33402); details: 90% inhibitory concentration for bacterial growth, 37° C., resazurin fluorescence, read-out: IC90 (μg/ml) SMU 33402
Method: as §1, §2, §3, §4

[11] = test system: Enterococcus faecalis (ATCC14506); details: 90% inhibitory concentration for bacterial growth, 37° C., resazurin fluorescence, read-out: IC90 (μg/ml) EFA 14506
Method: as §1, §2, §3, §4

SMILES	IC90 [1]	IC90 [3]	IC90 [4]	IC90 [5]	IC90 [6]	IC90 [7]	IC90 [8]	IC90 [9]	IC90 [10]	IC90 [11]	IC90 [2]
CN(C)CCC(O)(c1cccc2ccccc12)c1cc(Br)cc2cc(Cc3ccccc3)c(-n3ccnc3)nc12 (stereo not shown) [Compound 24]	14.9 µg/mL (≈ 25.2 µM)	11.8 µg/mL (≈ 19.9 µM)	14.9 µg/mL (≈ 25.2 µM)	13.2 µg/mL (≈ 22.3 µM)	14.9 µg/mL (≈ 25.2 µM)	11.8 µg/mL (≈ 19.9 µM)	14.9 µg/mL (≈ 25.2 µM)	11.8 µg/mL (≈ 19.9 µM)	11.8 µg/mL (≈ 19.9 µM)	11.8 µg/mL (≈ 19.9 µM)	14.9 µg/mL (≈ 25.2 µM)
COc1nc2ccccc2c(CC(O)(CCN(C)C)c2cccc3ccccc23)c1Cc1ccccc1 (stereo not shown) [Compound 70]	49.1 µg/mL (≈ 100 µM)	12.3 µg/mL (≈ 25.1 µM)	12.3 µg/mL (≈ 25.1 µM)	12.3 µg/mL (≈ 25.1 µM)	39 µg/mL (≈ 79.5 µM)	12.3 µg/mL (≈ 25.1 µM)	9.8 µg/mL (≈ 20 µM)	9.8 µg/mL (≈ 20 µM)	9.8 µg/mL (≈ 20 µM)		12.3 µg/mL (≈ 25.1 µM)
CN(C)CCC(O)(c1ccccc1)c1cc(-c2cccnc2)cc2cc(-c3ccccc3)c(-c3cccnc3)nc12 (stereo not shown) [Compound 65]	13.5 µg/mL (≈ 25.2 µM)	13.5 µg/mL (≈ 25.2 µM)	13.5 µg/mL (≈ 25.2 µM)	13.5 µg/mL (≈ 25.2 µM)	13.5 µg/mL (≈ 25.2 µM)	13.5 µg/mL (≈ 25.2 µM)	13.5 µg/mL (≈ 25.2 µM)	13.5 µg/mL (≈ 25.2 µM)	13.5 µg/mL (≈ 25.2 µM)		13.5 µg/mL (≈ 25.2 µM)
COc1nc2ccc(C(O)(CCN(C)C)c3cc(F)cc(F)c3)cc2cc1Cc1ccc(C)cc1 (stereo not shown) [Compound 7]	10.7 µg/mL (≈ 22.5 µM)	9.5 µg/mL (≈ 19.9 µM)	12 µg/mL (≈ 25.2 µM)	7.6 µg/mL (≈ 15.9 µM)	7.6 µg/mL (≈ 15.9 µM)	37.9 µg/mL (≈ 79.5 µM)	10.7 µg/mL (≈ 22.5 µM)	12 µg/mL (≈ 25.2 µM)			37.9 µg/mL (≈ 79.5 µM)
CN(C)CCC(O)(c1cccc2ccccc12)c1cc(Br)cc2cc(-c3ccccc3)c(-n3cncn3)nc12 (stereo not shown) [Compound 33]	14.5 µg/mL (≈ 25.1 µM)	14.5 µg/mL (≈ 25.1 µM)	14.5 µg/mL (≈ 25.1 µM)	14.5 µg/mL (≈ 25.1 µM)	14.5 µg/mL (≈ 25.1 µM)	11.5 µg/mL (≈ 19.9 µM)	14.5 µg/mL (≈ 25.1 µM)	11.5 µg/mL (≈ 19.9 µM)	11.5 µg/mL (≈ 19.9 µM)	46 µg/mL (≈ 79.5 µM)	14.5 µg/mL (≈ 25.1 µM)
COc1nc2c(C(O)(CCN(C)C)c3cccs3)cc(-c3cccnc3)cc2cc1Cc1ccccc1 (stereo not shown) [Compound 67]	51 µg/mL (≈ 100 µM)	51 µg/mL (≈ 100 µM)	22.8 µg/mL (≈ 44.7 µM)	51 µg/mL (≈ 100 µM)	51 µg/mL (≈ 100 µM)	51 µg/mL (≈ 100 µM)	51 µg/mL (≈ 100 µM)	51 µg/mL (≈ 100 µM)			51 µg/mL (≈ 100 µM)

Further lines, with some results ahead:

IC90 [1]	IC90 [3]	IC90 [4]	IC90 [5]	IC90 [6]	IC90 [7]	IC90 [8]	IC90 [9]	IC90 [10]	IC90 [11]	SMILES	IC90 [2]
10.1 µg/mL (≈ 25.1 µM)	10.1 µg/mL (≈ 25.1 µM)	10.1 µg/mL (≈ 25.1 µM)	10.1 µg/mL (≈ 25.1 µM)	10.1 µg/mL (≈ 25.1 µM)	10.1 µg/mL (≈ 25.1 µM)	10.1 µg/mL (≈ 25.1 µM)	10.1 µg/mL (≈ 25.1 µM)			COc1cc(-c2ccccc2)c2cc(C(O)(CCN(C)C)c3ccco3)ccc2n1 (stereo not shown) [Compound 15]	10.1 µg/mL (≈ 25.1 µM)
10.4 µg/mL (≈ 25.2 µM)	10.4 µg/mL (≈ 25.2 µM)	10.4 µg/mL (≈ 25.2 µM)	10.4 µg/mL (≈ 25.2 µM)	10.4 µg/mL (≈ 25.2 µM)	10.4 µg/mL (≈ 25.2 µM)	10.4 µg/mL (≈ 25.2 µM)	10.4 µg/mL (≈ 25.2 µM)			COc1nc2cccc(C(O)(CCN(C)C)c3ccccc3)c2cc1-c1ccccc1 (stereo not shown) [Compound 4]	10.4 µg/mL (≈ 25.2 µM)
11.3 µg/mL (≈ 25.2 µM)	11.3 µg/mL (≈ 25.2 µM)	11.3 µg/mL (≈ 25.2 µM)	11.3 µg/mL (≈ 25.2 µM)	11.3 µg/mL (≈ 25.2 µM)	11.3 µg/mL (≈ 25.2 µM)	11.3 µg/mL (≈ 25.2 µM)	9 µg/mL (≈ 20.1 µM)	9 µg/mL (≈ 20.1 µM)	11.3 µg/mL (≈ 25.2 µM)	COc1nc2cccc(C(O)(CCN(C)C)c3cc(F)cc(F)c3)c2cc1-c1ccccc1 (stereo not shown) [Compound 1]	11.3 µg/mL (≈ 25.2 µM)
11.6 µg/mL (≈ 25.1 µM)	9.2 µg/mL (≈ 19.9 µM)	11.6 µg/mL (≈ 25.1 µM)	10.3 µg/mL (≈ 22.3 µM)	11.6 µg/mL (≈ 25.1 µM)	9.2 µg/mL (≈ 19.9 µM)	11.6 µg/mL (≈ 25.1 µM)	9.2 µg/mL (≈ 19.9 µM)	9.2 µg/mL (≈ 19.9 µM)	10.3 µg/mL (≈ 22.3 µM)	CN(C)CCC(O)(c1cc(F)cc(F)c1)c1cccc2nc(N(C)C)c(-c3ccccc3)cc12 (stereo not shown) [Compound 45]	46.2 µg/mL (≈ 100 µM)
10.4 µg/mL (≈ 25.2 µM)	10.4 µg/mL (≈ 25.2 µM)	10.4 µg/mL (≈ 25.2 µM)	10.4 µg/mL (≈ 25.2 µM)	10.4 µg/mL (≈ 25.2 µM)	10.4 µg/mL (≈ 25.2 µM)	10.4 µg/mL (≈ 25.2 µM)	10.4 µg/mL (≈ 25.2 µM)			COc1cc(-c2ccccc2)c2cc(C(O)(CCN(C)C)c3ccccc3)ccc2n1 (stereo not shown) [Compound 14]	10.4 µg/mL (≈ 25.2 µM)
